In ChEMBL document CHEMBL5724914, “Linking interpersonal differences in gut microbiota composition and drug biotransformation activity” (2024):

Experiment: (§1) The drug is tested on Z-012 corresponding to metagenome with ENA study accession number: PRJEB37062 and ENA sample accession number: ERS12561812 for biotransformation under anaerobic condition. The drug concentrations were measured over 9 timepoints collected between 0 and 24 hours of incubation by liquid-chromatography-coupled mass spectrometry (LC–MS)
Conditions: 2 µM
Also: call rule not given here.

Compound | Bacterial Biotransformation
CN1C(=O)CC(C)(c2ccccc2)C1=O (stereo not given) [METHSUXIMIDE] | Compound NOT metabolized
CN1C(=O)CCS(=O)(=O)C1c1ccc(Cl)cc1 (stereo not given) [CHLORMEZANONE] | Compound NOT metabolized

Experiment: (§2) The drug is tested on WLS-038 corresponding to human gut metagenome with ENA study accession number: PRJEB37062 and ENA sample accession number: ERS12561745 for biotransformation under anaerobic condition. The drug concentrations were measured over 9 timepoints collected between 0 and 24 hours of incubation by liquid-chromatography-coupled mass spectrometry (LC–MS)
Conditions: 2 µM

Compound | Bacterial Biotransformation
CN1C(=O)CC(C)(c2ccccc2)C1=O (stereo not given) [METHSUXIMIDE] | Compound NOT metabolized
CN1C(=O)CCS(=O)(=O)C1c1ccc(Cl)cc1 (stereo not given) [CHLORMEZANONE] | Compound NOT metabolized

Experiment: as §2, with “WLS-007” for “WLS-038”, “ERS12561742” for “ERS12561745”
Conditions: 2 µM

Compound | Bacterial Biotransformation
CN1C(=O)CC(C)(c2ccccc2)C1=O (stereo not given) [METHSUXIMIDE] | Compound NOT metabolized
CN1C(=O)CCS(=O)(=O)C1c1ccc(Cl)cc1 (stereo not given) [CHLORMEZANONE] | Compound NOT metabolized

Experiment: as §2, with “Z-011” for “WLS-038”, “mouse” for “human”, “ERS12561811” for “ERS12561745”
Conditions: 2 µM

Compound | Bacterial Biotransformation
CN1C(=O)CC(C)(c2ccccc2)C1=O (stereo not given) [METHSUXIMIDE] | Compound NOT metabolized
CN1C(=O)CCS(=O)(=O)C1c1ccc(Cl)cc1 (stereo not given) [CHLORMEZANONE] | Compound NOT metabolized

Conditions: human gut metagenome, 24 h, 2 µM

Compound | Bacterial Biotransformation
CN1C(=O)CC(C)(c2ccccc2)C1=O (stereo not given) [METHSUXIMIDE] | Compound NOT metabolized
CN1C(=O)CCS(=O)(=O)C1c1ccc(Cl)cc1 (stereo not given) [CHLORMEZANONE] | Compound NOT metabolized

Experiment: as §1, with “Z-026” for “Z-012”, “ERS12561825” for “ERS12561812”
Conditions: 2 µM

Compound | Bacterial Biotransformation
CN1C(=O)CC(C)(c2ccccc2)C1=O (stereo not given) [METHSUXIMIDE] | Compound NOT metabolized
CN1C(=O)CCS(=O)(=O)C1c1ccc(Cl)cc1 (stereo not given) [CHLORMEZANONE] | Compound NOT metabolized

Conditions: human gut metagenome, 24 h, 2 µM
Remark: another data set of the same source

Compound | Bacterial Biotransformation
CN1C(=O)CC(C)(c2ccccc2)C1=O (stereo not given) [METHSUXIMIDE] | Compound NOT metabolized
CN1C(=O)CCS(=O)(=O)C1c1ccc(Cl)cc1 (stereo not given) [CHLORMEZANONE] | Compound NOT metabolized

Conditions: human gut metagenome, 24 h, 2 µM
Remark: another data set of the same source

Compound | Bacterial Biotransformation
CN1C(=O)CC(C)(c2ccccc2)C1=O (stereo not given) [METHSUXIMIDE] | Compound NOT metabolized
CN1C(=O)CCS(=O)(=O)C1c1ccc(Cl)cc1 (stereo not given) [CHLORMEZANONE] | Compound NOT metabolized

Experiment: as §2, with “WLS-027” for “WLS-038”, “ERS12561744” for “ERS12561745”
Conditions: 2 µM

Compound | Bacterial Biotransformation
CN1C(=O)CC(C)(c2ccccc2)C1=O (stereo not given) [METHSUXIMIDE] | Compound NOT metabolized
CN1C(=O)CCS(=O)(=O)C1c1ccc(Cl)cc1 (stereo not given) [CHLORMEZANONE] | Compound NOT metabolized

Conditions: human gut metagenome, 24 h, 2 µM
Remark: another data set of the same source

Compound | Bacterial Biotransformation
CN1C(=O)CC(C)(c2ccccc2)C1=O (stereo not given) [METHSUXIMIDE] | Compound metabolized
CN1C(=O)CCS(=O)(=O)C1c1ccc(Cl)cc1 (stereo not given) [CHLORMEZANONE] | Compound NOT metabolized

Conditions: human gut metagenome, 24 h, 2 µM
Remark: another data set of the same source

Compound | Bacterial Biotransformation
CN1C(=O)CC(C)(c2ccccc2)C1=O (stereo not given) [METHSUXIMIDE] | Compound NOT metabolized
CN1C(=O)CCS(=O)(=O)C1c1ccc(Cl)cc1 (stereo not given) [CHLORMEZANONE] | Compound NOT metabolized

Experiment: as §2, with “Z-002” for “WLS-038”, “rabbit” for “human”, “ERS12561802” for “ERS12561745”
Conditions: 2 µM

Compound | Bacterial Biotransformation
CN1C(=O)CC(C)(c2ccccc2)C1=O (stereo not given) [METHSUXIMIDE] | Compound NOT metabolized
CN1C(=O)CCS(=O)(=O)C1c1ccc(Cl)cc1 (stereo not given) [CHLORMEZANONE] | Compound NOT metabolized

Experiment: as §1, with “Z-010” for “Z-012”, “ERS12561810” for “ERS12561812”
Conditions: 2 µM

Compound | Bacterial Biotransformation
CN1C(=O)CC(C)(c2ccccc2)C1=O (stereo not given) [METHSUXIMIDE] | Compound NOT metabolized
CN1C(=O)CCS(=O)(=O)C1c1ccc(Cl)cc1 (stereo not given) [CHLORMEZANONE] | Compound NOT metabolized

Conditions: human gut metagenome, 24 h, 2 µM
Remark: another data set of the same source

Compound | Bacterial Biotransformation
CN1C(=O)CC(C)(c2ccccc2)C1=O (stereo not given) [METHSUXIMIDE] | Compound metabolized
CN1C(=O)CCS(=O)(=O)C1c1ccc(Cl)cc1 (stereo not given) [CHLORMEZANONE] | Compound metabolized

Experiment: as §2, with “WLS-010” for “WLS-038”, “ERS12561743” for “ERS12561745”
Conditions: 2 µM

Compound | Bacterial Biotransformation
CN1C(=O)CC(C)(c2ccccc2)C1=O (stereo not given) [METHSUXIMIDE] | Compound NOT metabolized
CN1C(=O)CCS(=O)(=O)C1c1ccc(Cl)cc1 (stereo not given) [CHLORMEZANONE] | Compound NOT metabolized

Experiment: as §2, with “WLS-039” for “WLS-038”, “ERS12561746” for “ERS12561745”
Conditions: 2 µM

Compound | Bacterial Biotransformation
CN1C(=O)CC(C)(c2ccccc2)C1=O (stereo not given) [METHSUXIMIDE] | Compound NOT metabolized
CN1C(=O)CCS(=O)(=O)C1c1ccc(Cl)cc1 (stereo not given) [CHLORMEZANONE] | Compound NOT metabolized

Experiment: as §2, with “WLS-240” for “WLS-038”, “ERS12561773” for “ERS12561745”
Conditions: 2 µM

Compound | Bacterial Biotransformation
CN1C(=O)CC(C)(c2ccccc2)C1=O (stereo not given) [METHSUXIMIDE] | Compound metabolized
CN1C(=O)CCS(=O)(=O)C1c1ccc(Cl)cc1 (stereo not given) [CHLORMEZANONE] | Compound metabolized

Conditions: human gut metagenome, 24 h, 2 µM
Remark: another data set of the same source

Compound | Bacterial Biotransformation
CN1C(=O)CC(C)(c2ccccc2)C1=O (stereo not given) [METHSUXIMIDE] | Compound NOT metabolized
CN1C(=O)CCS(=O)(=O)C1c1ccc(Cl)cc1 (stereo not given) [CHLORMEZANONE] | Compound NOT metabolized

Experiment: as §2, with “WLS-098” for “WLS-038”, “ERS12561754” for “ERS12561745”
Conditions: 2 µM

Compound | Bacterial Biotransformation
CN1C(=O)CC(C)(c2ccccc2)C1=O (stereo not given) [METHSUXIMIDE] | Compound NOT metabolized
CN1C(=O)CCS(=O)(=O)C1c1ccc(Cl)cc1 (stereo not given) [CHLORMEZANONE] | Compound NOT metabolized

Experiment: as §2, with “WLS-170” for “WLS-038”, “ERS12561762” for “ERS12561745”
Conditions: 2 µM

Compound | Bacterial Biotransformation
CN1C(=O)CC(C)(c2ccccc2)C1=O (stereo not given) [METHSUXIMIDE] | Compound metabolized
CN1C(=O)CCS(=O)(=O)C1c1ccc(Cl)cc1 (stereo not given) [CHLORMEZANONE] | Compound metabolized
